Measurements: patent US20250213593A1, “Use of Derivatives based on Sarsasapogenin Structure and Pharmaceutical Compositions thereof” (BEIJING PHYTOVENT PHARMACEUTICAL TECHNOLOGY CO., LTD., priority 2022, published 2025)
In brackets after ≈: the same amount, converted by molar mass. Entries after “also recorded” stand apart in the source; their conditions may differ.

Legend:
[1] = tested on: C57BL/6 mouse MCAO damage model; assay: Mice middle cerebral artery occlusion (MCAO) damage model; format: in vivo; details: 24 h after surgery, vs MCAO model group
Procedure: Animal grouping and treatment: according to body weight on Day 1, the animals were randomly divided into a total of 8 groups (N=5), one group was treated every day, and 3 animals were selected in each group for measuring cerebral blood flows.
If the hind paws of the mice had no response when clamped with dissecting forceps, they were transferred to an anesthesia mask, and the isoflurane concentration would be increased to 1.5%. A thermostat and an anal temperature probe were used to maintain intraoperative body temperatures of the mice near 37° C. […]
Measurement of cerebral blood flow: the head of each mouse was fixed under a brain stereotaxic instrument, the head hair of the mouse was shaved, and an incision was made in the middle. […] Optical fibers of a laser Doppler flow meter were fixed with glue at coordinates of Bregma AP 1.0 mm and ML 5.0 mm, and the blood flow changes during MCA surgery were recorded. […]
• Body weight: the body weights of the mice on the day before surgery and 24 h after surgery were recorded. • Neurological function scoring: Longa behavioral scoring was performed at 2 h and 24 h after surgery. […]
Each mouse was tested for forelimb grip 24 h before surgery and 24 h after surgery. […] The grip peaks were recorded, repeatedly measured for three times, and averaged. […]

[2] = tested on: transgenic neutrophil fluorescent zebrafishes; assay: Maximum tolerated concentration (MTC) in LPS-induced inflammation zebrafish; format: in vivo; details: for Death count / Death rate (%): n = 30; for If precipitation occurred?: fish-farming water
From the text: Transgenic neutrophil fluorescent zebrafishes were matched and propagated naturally in pairs. The age was 3 days after fertilization (3 dpf), and there was a total of 810 zebrafishes, with 30 zebrafishes per experimental group. The purposes were to determine maximum tolerated concentrations (MTC) of “Embodiment 5” and “Embodiment 6” in an LPS-induced inflammation experiment, and evaluate anti-inflammatory effects of “Embodiment 5” and “Embodiment 6” on LPS-induced inflammations.
(§1) LPS was used to treat normal 3 dpf transgenic neutrophil fluorescent zebrafishes in a yolk sac injection, and a zebrafish inflammation model was established.
Transgenic neutrophil fluorescent zebrafishes (3 dpf), well developed and consistent in stage on 3 days after fertilization, were picked under a microscope and placed in a six-well plate, with 30 zebrafishes being randomly picked for each well at a capacity of 3 mL in each well. A zebrafish inflammation model was established by administrating LPS in a yolk sac injection. “Embodiment 5” and “Embodiment 6” were respectively dissolved with water, wherein the concentrations were 0.625 μM, 1.25 μM, 2.5 μM, 5 μM, 10 μM, 50 μM, 100 μM and 200 μM, respectively. Meanwhile, anormal control group (i.e., zebrafishes were treated with fish-farming water) and a model control group were set, and cultured in a 28° C. incubator for 3 h, and the death of zebrafishes was then observed and recorded. The number of dead zebrafishes in each experimental group was counted, and the maximum tolerated concentrations (MTCs) of zebrafishes in “Embodiment 5” and “Embodiment 6” were determined.

[3] = tested on: transgenic neutrophil fluorescent zebrafishes; assay: Anti-inflammatory effect on LPS-induced inflammatory zebrafish; format: in vivo
Procedure: as §1
Transgenic neutrophil fluorescent zebrafishes (3 dpf), well developed and consistent in stage on 3 days after fertilization, were picked under a microscope and placed in a six-well plate, with 30 zebrafishes being randomly picked for each well at a capacity of 3 mL in each well. A zebrafish inflammation model was established by administrating LPS in a yolk sac injection. “Embodiment 5” and “Embodiment 6” were respectively dissolved with water, wherein the concentrations were 0.28 μM, 0.83 μM and 2.5 μM, respectively. The concentration of indomethacin was 80 μM. Meanwhile, a normal control group (i.e., zebrafishes were treated with fish-farming water) and a model control group were set, and incubated in a 28° C. incubator for 3 h. 10 zebrafishes were randomly selected from each group, and observed and photographed under a fluorescence microscope, and the photos were saved. Nikon NIS-Elements D 3.10 advanced image processing software was used for image analysis, the number (N) of inflammatory neutrophils in zebrafish was calculated, and the statistical processing results were expressed as mean±SE. The statistical analysis results of the number of inflammatory neutrophils in zebrafish were used to evaluate whether “Embodiment 5” and “Embodiment 6” had significant anti-inflammatory effects on LPS-induced inflammatory zebrafish, respectively. A formula for calculating the anti-inflammatory effects of “Embodiment 5” and “Embodiment 6” was as follows: […]

[4] = physchem; details: organic solvent or mixture
[5] = tested on: transgenic AD mice (C57BL/6J background); assay: Light/dark box test of AD mice; format: in vivo, mouse; details: 6 months after administration
From the text: The principle of the light/dark box test is: the mice have a natural tendency to darkness; and after the mice was put into a light box, the mice would spontaneously enter a connected dark box. However, in this experiment, the dark box was equipped with an electrical stimulation mechanism, and the mice would be shocked when they entered the dark box.

[6] = tested on: C57BL/6 mice modeled with MPTP; assay: PD mouse model (MPTP); format: in vivo; details: 80 mpk, 15 days; vs model group, T-test
Procedure: • Experimental and analytical method: mice of C57BL/6 strain were used in this experiment, which were divided into 5 groups, including a normal control group (no injection of MPTP), a model group (modeling with MPTP), and treatment groups of three small molecules (Embodiment 13B, Embodiment 25A, and Embodiment 25B). The drug was administered at the same time as modeling was made. The modeling lasted for 5 days, followed by 30 mpk intraperitoneal injection till lasting for 15 days, and lasted for 15 days at 80 mpk. At the endpoint, the brain was soaked and fixed in PFA after cardiac perfusion, and transferred to sucrose dehydration after complete fixation, and OCT embedding and sectioning were used for TH staining after complete dehydration. The detection indicator was the number of TH-positive cells in the substantia nigra. The more positive cells, the better the protection effect of small molecules against MPTP damage. • Results: there were 12 mice in each group, and the statistical results were shown in FIG. 50, T-test, **: p<0.01, #: p<0.05.

[7] = tested on: Raji-Luc hematologic tumor cells in NOD-Scid immunodeficient mice; assay: NOD-Scid mice inoculated with hematologic tumor cells Raji-Luc; details: 100 mpk by gavage once a day
[8] = tested on: SMPs (submitochondrial particles); assay: Catalytic activity of SMPs (NADH dehydrogenation); format: biochemical; details: Rotenone 2 μM, 10 min, 500 μM NADH
Procedure: Experiment 9. Detection of Small Molecule Compounds that Facilitated the Catalytic Activity of SMPs (Submitochondrial Particles) • Experimental and analytical method: HEK293 cells were cultured at 5% CO2, and purified to obtain mitocondria, which were sonicated to obtain SMPs (submitochondrial granules). SMPs were incubated with different concentrations of small molecule compounds or a control drug (Rotenone, 2 μM) for 10 min, and then added with 500 μM of NADH. The absorbance of NADH was detected by an Enspire multi-mode microplate reader, an enzyme activity curve with the decrease of NADH concentration catalyzed by SMPs was plotted, and a maximum reaction rate of SMPs was calculated by linear fitting. The addition of 1 mM FeCN to a normal NADH catalytic system of SMPs could cause an electronic pathway from NADH to coenzyme Q to be short-circuited.

[9] = concentration 0.625 (table head μg/mL; text μM)
[10] = concentration 0.625 (table head μg/mL; text μM), 3 h
[11] = concentration 1.25 (table head μg/mL; text μM)
[12] = concentration 1.25 (table head μg/mL; text μM), 3 h
[13] = concentration 2.5 (table head μg/mL; text μM)
[14] = concentration 2.5 (table head μg/mL; text μM), 3 h
[15] = concentration 5 (table head μg/mL; text μM), 3 h
[16] = concentration 10 (table head μg/mL; text μM), 3 h
[17] = concentration 50 (table head μg/mL; text μM), 3 h
[18] = concentration 100 (table head μg/mL; text μM), 3 h
[19] = concentration 200 (table head μg/mL; text μM), 3 h

CC1=NN(c2ccccc2)C(=O)C1 [Edaravone]
forelimb grip strength ([1]; Edaravone 10 mg/kg IP, NO. 2 60 mg/kg PO, NO. 3-6 80 mg/kg PO): significant difference | volume of encephaledema (TTC staining) ([1]; doses as Table 6): significant difference

C[C@H]1CC[C@@]2(OC1)O[C@H]1C[C@H]3[C@@H]4CC[C@@H]5CC(NC(=O)CC(=O)N6CCN(C)CC6)CC[C@]5(C)[C@H]4CC[C@]3(C)[C@H]1[C@@H]2C (stereo partly drawn) [Embodiment 5]
Toxicity [2, 9]: No obvious toxicity | Death count [2, 10]: 0 | Death rate (%) [2, 10]: 0% | If precipitation occurred? [2, 9]: No | Toxicity [2, 11]: No obvious toxicity | Death count [2, 12]: 0 | Death rate (%) [2, 12]: 0% | If precipitation occurred? [2, 11]: No | Toxicity [2, 13]: normal state; also recorded: No obvious toxicity | Death count [2, 14]: 0 | Death rate (%) [2, 14]: 0% | If precipitation occurred? [2, 13]: not precipitated and No | Death count [2, 15]: 3 | Death rate (%) [2, 15]: 10% | If precipitation occurred? ([2]; concentration 5 (table head μg/mL; text μM)): No | Death count [2, 16]: 30 | Death rate (%) [2, 16]: 100% | If precipitation occurred? ([2]; concentration 10 (table head μg/mL; text μM)): No | Death count [2, 17]: 30 | Death rate (%) [2, 17]: 100% | If precipitation occurred? ([2]; concentration 50 (table head μg/mL; text μM)): No | Death count [2, 18]: 30 | Death rate (%) [2, 18]: 100% | If precipitation occurred? ([2]; concentration 100 (table head μg/mL; text μM)): No | Death count [2, 19]: 30 | Death rate (%) [2, 19]: 100% | If precipitation occurred? ([2]; concentration 200 (table head μg/mL; text μM)): No | maximum tolerated concentration (MTC) ([2]; in the evaluation of the anti-inflammatory effect, LPS zebrafish, 3 h): 2.5 µM | Inflammation resolution (%) / anti-inflammatory effect ([3]; 0.28 μM): 33% | Inflammation resolution (%) / anti-inflammatory effect ([3]; 0.83 μM): 61% | Inflammation resolution (%) / anti-inflammatory effect ([3]; 2.5 μM): 67% | anti-inflammatory effects on inflammatory zebrafish (in words) ([3]; 0.28 to 2.5 μM, P<0.001 vs model control): obvious anti-inflammatory effects | solubility [4]: 20 mM (≈ 11.7 mg/mL)

C[C@H]1CC[C@@]2(OC1)O[C@H]1C[C@H]3[C@@H]4CC[C@@H]5CC(NC(=O)CC(=O)N6CC(N7CCOCC7)C6)CC[C@]5(C)C4CC[C@]3(C)[C@H]1[C@@H]2C (stereo partly drawn) [Embodiment 23]
memory on electric shock (latency before entering the dark box) [5]: could effectively enhance the memory

CCN1CCN(C2CCN(C(=O)CC(=O)N[C@@H]3CC[C@]4(C)C5CC[C@]6(C)[C@@H]7[C@H](C[C@H]6[C@@H]5CC[C@@H]4C3)O[C@]3(CC[C@H](C)CO3)[C@H]7C)CC2)CC1 (stereo partly drawn) [Embodiment 25B]
number of TH-positive cells in the substantia nigra [6]: only the Embodiment 13B group of three small modules had statistically significant differences | tumor killing effect (in-vivo fluorescence intensity) [7]: relatively good tumor killing effects

C=C(C)[C@H]1Cc2c(ccc3c2O[C@@H]2COc4cc(OC)c(OC)cc4[C@@H]2C3=O)O1 [Rotenone]
dehydrogenation reaction of NADH by SMPs [8]: completely blocked
